Test results taken from BindingDB's records for doi:10.1021/jm0201417 (University of Southern California, 2002).
pEC50, pIC50: −log10 of the molar value.

What was measured:
[1] = Inhibitory activity against viral attachment
[2] = Effective concentration of the compound against viral replication by Reverse transcriptase

Row | Structure (SMILES) | pIC50 [1] | pEC50 [2]
1 | O=C(NNC(=O)c1ccccc1S)c1ccccc1S [2-Mercapto-benzoic acid N'-(2-mercapto-benzoyl)-hydrazide] | < 4.00 | 5.37
2 | O=C(NNC(=O)c1ccccc1SSc1ccccc1C(=O)NNC(=O)c1ccccc1S)c1ccccc1S [Compound 3] | < 4.00 | 4.75
3 | O=C1NNC(=O)c2ccccc2SSc2ccccc2C(=O)NNC(=O)c2ccccc2SSc2ccccc21 [11,12,13,14,25,26,27,28-octahydrotetrabenzo[c,i,m,s][1,2,11,12,6,7,16,17]tetrathiatetraazacycloicosine-11,14,25,28-tetraone] | – | 5.22
